Data taken from ChEMBL document CHEMBL4507293 (2021).

Experiments:
[1] = molecular target: Microtubule-associated serine/threonine-protein kinase 1 (Homo sapiens) (UniProt Q9Y2H9); settings: Compound concentration 100.0 nM
[2] = molecular target: Mitogen-activated protein kinase kinase kinase kinase 5 (Homo sapiens) (UniProt Q9Y4K4); settings: Compound concentration 100.0 nM
[3] = molecular target: 5-hydroxytryptamine receptor 2A (Homo sapiens) (UniProt P28223); settings: Compound concentration 10.0 uM
5-hydroxytryptamine receptor 2A (Homo sapiens), sequence (P28223 whole entry, the tested form may be a part): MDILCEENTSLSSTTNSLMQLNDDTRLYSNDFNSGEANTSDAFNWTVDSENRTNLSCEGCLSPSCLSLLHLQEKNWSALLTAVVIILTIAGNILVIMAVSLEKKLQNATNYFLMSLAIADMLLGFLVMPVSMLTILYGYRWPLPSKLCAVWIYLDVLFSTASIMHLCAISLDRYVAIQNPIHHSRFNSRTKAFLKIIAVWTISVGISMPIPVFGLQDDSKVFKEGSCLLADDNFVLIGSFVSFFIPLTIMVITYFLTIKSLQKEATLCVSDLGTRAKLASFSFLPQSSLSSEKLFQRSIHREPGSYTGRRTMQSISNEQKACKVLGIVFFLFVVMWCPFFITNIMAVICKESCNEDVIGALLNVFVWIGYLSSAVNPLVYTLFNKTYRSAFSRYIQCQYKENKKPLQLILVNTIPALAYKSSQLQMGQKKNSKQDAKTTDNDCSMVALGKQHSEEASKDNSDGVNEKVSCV

[4] = molecular target: Discoidin domain-containing receptor 2 (Homo sapiens) (UniProt Q16832); settings: Compound concentration 100.0 nM
[5] = molecular target: Dual specificity testis-specific protein kinase 1 (Homo sapiens) (UniProt Q15569); settings: Compound concentration 100.0 nM
[6] = molecular target: Testis-specific serine/threonine-protein kinase 3 (Homo sapiens) (UniProt Q96PN8); settings: Compound concentration 100.0 nM
[7] = molecular target: Ribosomal protein S6 kinase alpha-1 (Homo sapiens) (UniProt Q15418); settings: Compound concentration 100.0 nM
[8] = molecular target: Fibroblast growth factor receptor 2 (Homo sapiens) (UniProt P21802); settings: Compound concentration 100.0 nM
[9] = molecular target: Phosphatidylinositol 4,5-bisphosphate 3-kinase catalytic subunit beta isoform (Homo sapiens) (UniProt P42338); settings: Compound concentration 100.0 nM
[10] = molecular target: ALK tyrosine kinase receptor (Homo sapiens) (UniProt Q9UM73); settings: Compound concentration 100.0 nM
[11] = molecular target: Mast/stem cell growth factor receptor Kit (Homo sapiens) (UniProt P10721); settings: Compound concentration 100.0 nM
Mast/stem cell growth factor receptor Kit (Homo sapiens), sequence (P10721 whole entry): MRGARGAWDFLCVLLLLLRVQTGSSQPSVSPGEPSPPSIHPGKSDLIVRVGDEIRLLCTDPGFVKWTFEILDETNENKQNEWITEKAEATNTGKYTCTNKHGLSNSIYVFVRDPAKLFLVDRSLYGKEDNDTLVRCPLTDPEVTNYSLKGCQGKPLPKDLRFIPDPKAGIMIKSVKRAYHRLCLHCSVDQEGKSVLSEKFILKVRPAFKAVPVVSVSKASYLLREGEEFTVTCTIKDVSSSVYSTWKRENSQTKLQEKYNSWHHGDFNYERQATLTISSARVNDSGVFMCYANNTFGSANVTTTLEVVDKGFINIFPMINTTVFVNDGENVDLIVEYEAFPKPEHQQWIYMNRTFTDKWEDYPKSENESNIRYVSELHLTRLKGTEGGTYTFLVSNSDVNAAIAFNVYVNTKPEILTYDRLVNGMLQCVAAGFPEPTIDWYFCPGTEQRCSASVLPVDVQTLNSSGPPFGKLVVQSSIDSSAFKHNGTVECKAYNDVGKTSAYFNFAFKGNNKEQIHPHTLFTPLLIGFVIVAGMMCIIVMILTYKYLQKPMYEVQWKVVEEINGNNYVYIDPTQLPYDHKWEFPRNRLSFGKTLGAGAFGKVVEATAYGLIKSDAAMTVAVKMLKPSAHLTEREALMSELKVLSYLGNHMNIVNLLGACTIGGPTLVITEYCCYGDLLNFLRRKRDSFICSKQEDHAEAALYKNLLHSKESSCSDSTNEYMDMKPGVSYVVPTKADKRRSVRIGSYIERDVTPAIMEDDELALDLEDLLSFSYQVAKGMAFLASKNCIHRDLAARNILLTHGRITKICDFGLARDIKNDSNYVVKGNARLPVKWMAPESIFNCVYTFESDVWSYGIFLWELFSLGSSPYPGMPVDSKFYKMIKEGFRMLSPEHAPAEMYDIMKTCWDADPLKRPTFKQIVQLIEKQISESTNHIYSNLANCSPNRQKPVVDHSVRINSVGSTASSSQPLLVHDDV

[12] = test system: Tyrosine-protein kinase ABL1 (Homo sapiens), P00519 [Y253F]; settings: Compound concentration 100.0 nM
[13] = molecular target: Calcium/calmodulin-dependent protein kinase type 1B (Homo sapiens) (UniProt Q6P2M8); settings: Compound concentration 100.0 nM
[14] = molecular target: Maternal embryonic leucine zipper kinase (Homo sapiens) (UniProt Q14680); settings: Compound concentration 100.0 nM
[15] = molecular target: Mitogen-activated protein kinase kinase kinase 19 (Homo sapiens) (UniProt Q56UN5); settings: Compound concentration 100.0 nM
[16] = molecular target: Receptor-interacting serine/threonine-protein kinase 4 (Homo sapiens) (UniProt P57078); settings: Compound concentration 100.0 nM
[17] = molecular target: Cytoplasmic tyrosine-protein kinase BMX (Homo sapiens) (UniProt P51813); settings: Compound concentration 100.0 nM
Cytoplasmic tyrosine-protein kinase BMX (Homo sapiens), sequence (P51813 whole entry, the tested form may be a part): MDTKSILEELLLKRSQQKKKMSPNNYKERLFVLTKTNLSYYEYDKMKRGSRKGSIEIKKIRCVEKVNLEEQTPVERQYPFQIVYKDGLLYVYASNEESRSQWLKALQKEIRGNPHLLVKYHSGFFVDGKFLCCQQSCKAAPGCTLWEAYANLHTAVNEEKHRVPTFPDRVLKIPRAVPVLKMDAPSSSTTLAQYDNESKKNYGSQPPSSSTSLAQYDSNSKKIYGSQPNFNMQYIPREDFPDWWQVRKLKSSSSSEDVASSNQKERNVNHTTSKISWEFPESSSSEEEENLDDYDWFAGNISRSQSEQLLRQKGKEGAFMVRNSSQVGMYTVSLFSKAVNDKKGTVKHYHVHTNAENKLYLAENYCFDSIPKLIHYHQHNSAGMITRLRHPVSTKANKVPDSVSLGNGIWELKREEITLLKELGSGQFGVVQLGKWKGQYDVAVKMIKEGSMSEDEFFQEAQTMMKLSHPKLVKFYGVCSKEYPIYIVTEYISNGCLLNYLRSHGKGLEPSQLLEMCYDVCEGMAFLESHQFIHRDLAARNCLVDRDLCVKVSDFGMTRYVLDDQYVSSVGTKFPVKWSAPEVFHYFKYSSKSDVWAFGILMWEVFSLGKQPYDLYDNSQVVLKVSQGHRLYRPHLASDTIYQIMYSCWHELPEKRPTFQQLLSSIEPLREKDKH

[18] = molecular target: LIM domain kinase 2 (Homo sapiens) (UniProt P53671); settings: Compound concentration 100.0 nM
[19] = molecular target: MAP kinase-interacting serine/threonine-protein kinase 2 (Homo sapiens) (UniProt Q9HBH9); settings: Compound concentration 100.0 nM
[20] = molecular target: Tyrosine-protein kinase Mer (Homo sapiens) (UniProt Q12866); settings: Compound concentration 100.0 nM
[21] = molecular target: Mitogen-activated protein kinase kinase kinase 14 (Homo sapiens) (UniProt Q99558); settings: Compound concentration 100.0 nM
[22] = molecular target: Casein kinase I isoform gamma-3 (Homo sapiens) (UniProt Q9Y6M4); settings: Compound concentration 100.0 nM
[23] = molecular target: Macrophage colony-stimulating factor 1 receptor (Homo sapiens) (UniProt P07333); settings: Compound concentration 100.0 nM
[24] = molecular target: Tyrosine-protein kinase BTK (Homo sapiens) (UniProt Q06187); settings: Compound concentration 100.0 nM
[25] = test system: Epidermal growth factor receptor (Homo sapiens), P00533 [T790M]; settings: Compound concentration 100.0 nM
[26] = molecular target: Homeodomain-interacting protein kinase 3 (Homo sapiens) (UniProt Q9H422); settings: Compound concentration 100.0 nM
Homeodomain-interacting protein kinase 3 (Homo sapiens), sequence (Q9H422 whole entry, looked up): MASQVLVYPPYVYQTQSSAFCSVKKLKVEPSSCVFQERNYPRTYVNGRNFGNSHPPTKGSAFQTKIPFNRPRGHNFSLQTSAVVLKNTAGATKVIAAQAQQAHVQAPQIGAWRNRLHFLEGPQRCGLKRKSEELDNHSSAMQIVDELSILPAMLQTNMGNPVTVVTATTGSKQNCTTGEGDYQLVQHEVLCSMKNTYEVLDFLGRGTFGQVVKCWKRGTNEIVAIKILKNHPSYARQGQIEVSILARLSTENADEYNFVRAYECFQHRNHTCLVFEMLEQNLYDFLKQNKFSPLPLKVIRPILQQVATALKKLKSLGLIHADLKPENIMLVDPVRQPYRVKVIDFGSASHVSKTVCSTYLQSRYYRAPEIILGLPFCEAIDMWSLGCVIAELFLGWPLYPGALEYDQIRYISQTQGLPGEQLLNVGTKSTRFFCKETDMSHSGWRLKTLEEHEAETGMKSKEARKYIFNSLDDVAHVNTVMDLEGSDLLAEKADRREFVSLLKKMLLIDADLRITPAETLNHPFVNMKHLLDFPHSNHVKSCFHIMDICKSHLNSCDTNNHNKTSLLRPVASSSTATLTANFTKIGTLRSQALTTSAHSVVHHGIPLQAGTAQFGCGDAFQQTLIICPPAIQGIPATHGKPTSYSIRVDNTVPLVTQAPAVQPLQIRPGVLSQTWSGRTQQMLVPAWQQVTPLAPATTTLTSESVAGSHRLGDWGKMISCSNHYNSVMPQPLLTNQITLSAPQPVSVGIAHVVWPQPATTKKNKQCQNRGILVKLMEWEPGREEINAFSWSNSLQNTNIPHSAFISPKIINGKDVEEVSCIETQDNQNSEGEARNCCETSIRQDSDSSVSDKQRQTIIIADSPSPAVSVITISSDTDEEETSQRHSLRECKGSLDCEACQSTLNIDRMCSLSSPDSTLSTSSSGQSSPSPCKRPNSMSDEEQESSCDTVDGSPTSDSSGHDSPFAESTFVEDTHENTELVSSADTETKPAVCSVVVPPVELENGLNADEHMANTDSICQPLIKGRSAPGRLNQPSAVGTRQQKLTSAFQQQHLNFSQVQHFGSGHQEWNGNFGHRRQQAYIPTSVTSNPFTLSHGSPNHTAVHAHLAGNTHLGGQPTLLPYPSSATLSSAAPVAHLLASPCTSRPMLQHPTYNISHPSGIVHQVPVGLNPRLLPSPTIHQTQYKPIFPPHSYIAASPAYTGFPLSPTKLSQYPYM

[27] = molecular target: Mu-type opioid receptor (Homo sapiens) (UniProt P35372); settings: Compound concentration 10.0 uM
[28] = molecular target: Atypical kinase COQ8A, mitochondrial (Homo sapiens) (UniProt Q8NI60); settings: Compound concentration 100.0 nM
[29] = molecular target: Ribosomal protein S6 kinase alpha-5 (Homo sapiens) (UniProt O75582); settings: Compound concentration 100.0 nM
[30] = molecular target: Serine/threonine-protein kinase/endoribonuclease IRE1 (Homo sapiens) (UniProt O75460); settings: Compound concentration 100.0 nM
[31] = molecular target: Serine/threonine-protein kinase PAK 2 (Homo sapiens) (UniProt Q13177); settings: Compound concentration 100.0 nM
[32] = molecular target: Glycogen synthase kinase-3 alpha (Homo sapiens) (UniProt P49840); settings: Compound concentration 100.0 nM
[33] = molecular target: Casein kinase I isoform epsilon (Homo sapiens) (UniProt P49674); settings: Compound concentration 100.0 nM
[34] = test system: Epidermal growth factor receptor (Homo sapiens), P00533 [UNDEFINED MUTATION]; settings: Compound concentration 100.0 nM
[35] = molecular target: Tyrosine-protein kinase JAK2 (Homo sapiens) (UniProt O60674); settings: Compound concentration 100.0 nM
Tyrosine-protein kinase JAK2 (Homo sapiens), sequence (O60674 whole entry): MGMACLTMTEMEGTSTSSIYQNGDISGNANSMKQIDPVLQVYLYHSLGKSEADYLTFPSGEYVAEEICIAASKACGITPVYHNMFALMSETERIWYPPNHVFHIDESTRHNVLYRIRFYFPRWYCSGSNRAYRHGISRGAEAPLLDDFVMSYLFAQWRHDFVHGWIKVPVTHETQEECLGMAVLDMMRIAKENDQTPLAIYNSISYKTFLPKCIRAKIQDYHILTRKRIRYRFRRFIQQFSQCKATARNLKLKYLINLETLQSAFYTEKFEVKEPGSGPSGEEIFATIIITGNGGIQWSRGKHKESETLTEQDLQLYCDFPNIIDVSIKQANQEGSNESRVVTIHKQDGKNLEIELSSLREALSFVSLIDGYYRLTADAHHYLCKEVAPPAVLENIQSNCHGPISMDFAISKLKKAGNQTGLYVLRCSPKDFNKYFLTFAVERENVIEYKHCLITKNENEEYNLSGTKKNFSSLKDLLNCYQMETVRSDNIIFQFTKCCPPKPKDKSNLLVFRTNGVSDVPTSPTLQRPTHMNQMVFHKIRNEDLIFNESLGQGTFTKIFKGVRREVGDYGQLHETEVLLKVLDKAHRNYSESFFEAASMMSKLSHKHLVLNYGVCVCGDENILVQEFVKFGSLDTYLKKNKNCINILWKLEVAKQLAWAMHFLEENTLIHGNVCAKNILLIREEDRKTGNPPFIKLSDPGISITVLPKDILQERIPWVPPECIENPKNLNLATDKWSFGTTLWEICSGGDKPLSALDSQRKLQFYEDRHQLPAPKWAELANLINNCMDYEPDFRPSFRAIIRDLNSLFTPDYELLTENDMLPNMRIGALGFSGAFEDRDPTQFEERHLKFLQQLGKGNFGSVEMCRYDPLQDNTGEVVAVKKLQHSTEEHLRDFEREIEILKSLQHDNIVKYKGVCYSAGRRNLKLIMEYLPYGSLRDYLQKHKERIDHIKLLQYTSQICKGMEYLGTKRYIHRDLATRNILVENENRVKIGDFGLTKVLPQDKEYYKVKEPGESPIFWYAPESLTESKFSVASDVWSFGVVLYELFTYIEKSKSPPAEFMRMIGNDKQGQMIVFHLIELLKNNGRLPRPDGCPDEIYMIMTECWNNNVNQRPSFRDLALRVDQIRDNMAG

[36] = molecular target: Activin receptor type-2B (Homo sapiens) (UniProt Q13705); settings: Compound concentration 100.0 nM
[37] = molecular target: Serine/threonine-protein kinase 32C (Homo sapiens) (UniProt Q86UX6); settings: Compound concentration 100.0 nM
[38] = molecular target: Tyrosine-protein kinase FRK (Homo sapiens) (UniProt P42685); settings: Compound concentration 100.0 nM
[39] = molecular target: Mitogen-activated protein kinase 14 (Homo sapiens) (UniProt Q16539); settings: Compound concentration 100.0 nM
[40] = molecular target: Cyclin-dependent kinase 4 (Homo sapiens) (UniProt P11802); settings: Compound concentration 100.0 nM
[41] = molecular target: Dual specificity tyrosine-phosphorylation-regulated kinase 1A (Homo sapiens) (UniProt Q13627); settings: Compound concentration 100.0 nM
[42] = test system: Phosphatidylinositol 4,5-bisphosphate 3-kinase catalytic subunit alpha isoform (Homo sapiens), P42336 [H1047Y]; settings: Compound concentration 100.0 nM
[43] = molecular target: Membrane-associated tyrosine- and threonine-specific cdc2-inhibitory kinase (Homo sapiens) (UniProt Q99640); settings: Compound concentration 100.0 nM
[44] = molecular target: Homeodomain-interacting protein kinase 2 (Homo sapiens) (UniProt Q9H2X6); settings: Compound concentration 100.0 nM
[45] = molecular target: MAP kinase-activated protein kinase 2 (Homo sapiens) (UniProt P49137); settings: Compound concentration 100.0 nM
MAP kinase-activated protein kinase 2 (Homo sapiens), sequence (P49137 whole entry, looked up): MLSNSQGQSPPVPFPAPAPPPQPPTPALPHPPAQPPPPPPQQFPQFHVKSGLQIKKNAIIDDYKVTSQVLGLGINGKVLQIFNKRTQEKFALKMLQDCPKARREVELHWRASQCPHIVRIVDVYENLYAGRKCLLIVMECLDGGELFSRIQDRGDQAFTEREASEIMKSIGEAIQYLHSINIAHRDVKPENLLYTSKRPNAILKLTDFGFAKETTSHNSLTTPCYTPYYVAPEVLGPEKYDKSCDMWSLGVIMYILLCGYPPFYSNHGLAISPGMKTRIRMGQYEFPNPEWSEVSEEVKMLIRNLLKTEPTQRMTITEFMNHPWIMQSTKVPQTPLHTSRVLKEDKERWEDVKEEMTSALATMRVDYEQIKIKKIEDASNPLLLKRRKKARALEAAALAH

CC(C)CC(=O)N1CCc2nc(-c3ccc(Br)cc3)nc(N(C)Cc3ccccc3)c2C1 [THPP-1-NC]
inactive: residual activity [1] 100% | residual activity [2] 93% | inhibition [3] 3% | residual activity [4] 97% | residual activity [5] 100% | residual activity [6] 100% | residual activity [7] 93% | residual activity [8] 100% | residual activity [9] 100% | residual activity [10] 91% | residual activity [11] 100% | residual activity [12] 97% | residual activity [13] 100% | residual activity [14] 67% | residual activity [15] 100% | residual activity [16] 100% | residual activity [17] 100% | residual activity [18] 100% | residual activity [19] 73% | residual activity [20] 100% | residual activity [21] 100% | residual activity [22] 100% | residual activity [23] 100% | residual activity [24] 100% | residual activity [25] 74% | residual activity [26] 100% | inhibition [27] -0.75% | residual activity [28] 100% | residual activity [29] 96% | residual activity [30] 100% | residual activity [31] 100% | residual activity [32] 100% | residual activity [33] 100% | residual activity [34] 99% | residual activity [35] 100% | residual activity [36] 100% | residual activity [37] 98% | residual activity [38] 100% | residual activity [39] 100% | residual activity [40] 93% | residual activity [41] 78% | residual activity [42] 76% | residual activity [43] 92% | residual activity [44] 100% | residual activity [45] 92%

COCCOc1nc(-c2ccc(Cl)nc2)nc2c1CN(C(=O)c1ncn3ccccc13)CC2 [THPP-1]
inactive: residual activity [1] 100% | residual activity [2] 91% | inhibition [3] -1.4% | residual activity [4] 100% | residual activity [5] 100% | residual activity [6] 100% | residual activity [7] 100% | residual activity [8] 100% | residual activity [9] 100% | residual activity [10] 91% | residual activity [11] 100% | residual activity [12] 93% | residual activity [13] 100% | residual activity [14] 65% | residual activity [15] 100% | residual activity [16] 100% | residual activity [17] 100% | residual activity [18] 100% | residual activity [19] 100% | residual activity [20] 89% | residual activity [21] 100% | residual activity [22] 100% | residual activity [23] 100% | residual activity [24] 100% | residual activity [25] 61% | residual activity [26] 100% | inhibition [27] -0.32% | residual activity [28] 100% | residual activity [29] 100% | residual activity [30] 100% | residual activity [31] 100% | residual activity [32] 100% | residual activity [33] 100% | residual activity [34] 100% | residual activity [35] 100% | residual activity [36] 93% | residual activity [37] 100% | residual activity [38] 100% | residual activity [39] 100% | residual activity [40] 100% | residual activity [41] 78% | residual activity [42] 79% | residual activity [43] 100% | residual activity [44] 100% | residual activity [45] 73%
